The source of these data is US12478608B2, “Use of slow-releasing hydrogen sulfide organic donor ADT-OH in the preparation of drugs for treating nervous system diseases” (SOOCHOW UNIVERSITY, priority 2021, dated 2025).

Common to all, as to format: cell-based, mouse
The test system of assay [1] is neural precursor cells. As to the kind of experiment: Apoptosis of neural precursor cells (caspase3 staining). The note with it: ADT-OH 80 μmol/L. How it is done: The isolated primary neural precursor cells were cultured for 3-4 days, and the neurospheres were blown into individual cells. and inoculated in a 24-well cell culture plate lined with adhesive glass discs. The cells were grown in neural precursor cell culture medium supplemented with ADT-OH (80 μmol/L) or control solute DMSO for 3 days, respectively, and then stained with apoptosis-specific antibody caspase3. Images were collected under a fluorescence microscope, and • the rate of caspase3 positive cells to all DAPI-positive cells were statistically calculated.

Assay [2] relates to neural precursor cells. As to the kind of experiment: Differentiation of neural precursor cells into oligodendrocytes (MBP immunofluorescence). The note with it: ADT-OH 80 μmol/L; 5 days in differentiation medium. The source says: (§1) • (1) Adult ICR mice (male:female 2:1) were allowed to mate randomly. At 8:00 every night, the male and female mice were co-caged. […] On day 14.5 of pregnancy of the mice, neural precursor cells were extracted.
(§2) C57BL/6J mice at day 14.5 of pregnancy were anesthetized with 4% chloral hydrate by intraperitoneal injection. The abdominal cavity of the pregnant mice was opened using sterile surgical scissors and surgical forceps, the uterus of the pregnant mice was opened and the fetal brain was taken out. […]
(§3) The cultured cells were fixed with 4% PFA for 15 min, and washed three times with 0.01 M PBS, and then immunofluorescence staining was performed with Tuj1, GFAP, MBP, and caspase3 antibodies. The plate was blocked with a DAPI-containing blocking agent (Vector Labs, H-1400), observed and photographed under a Zeiss fluorescence microscope. Tuj1-positive neurons GFAP-positive astrocytes, MBP-positive oligodendrocytes and DAPI-positive cells were counted using ImageJ and adobe photoshop, respectively. The rate of positive cells to all DAPI-positive cells was calculated. • (2) The cells were fixed with 4% PFA after 5 days of differentiation in the differentiation medium, and immunofluorescently stained with the neuron-specific antibody Tuj1. […]
The rate of MBP positive cells to all DAPI-positive cells was statistically calculated.

The test system of assay [3] is neural precursor cells. Put plainly: Differentiation of neural precursor cells into astrocytes (GFAP immunofluorescence). Particulars: ADT-OH 80 μmol/L; 8 days in differentiation medium.
Description: as §1, §2, §3
The rate of GFAP positive cells to DAPI-positive cells was statistically calculated.

In assay [4] the test system is neural precursor cells. As to the kind of experiment: Differentiation of neural precursor cells into neurons (Tuj1 immunofluorescence) and axonal length. The note with it: ADT-OH 80 μmol/L; 5 days in differentiation medium.
Description: as §1
C57BL/6J mice at day 14.5 of pregnancy were anesthetized with 4% chloral hydrate by intraperitoneal injection. The abdominal cavity of the pregnant mice was opened using sterile surgical scissors and surgical forceps, the uterus of the pregnant mice was opened and the fetal brain was taken out. The fetal brain tissue in the subventricular zone was isolated under a stereomicroscope, digested with 0.05% trypsin in a water bath at 37° C. for 10 min, and then terminated with a neural precursor cell culture medium (containing DMEM-F12 medium 39.2 ml, 1×B27 800 ul, 0.2 mg/ml bEGF 4 ul, and 0.2 mg/ml FGF 8 ul), and then gently blown into individual cells. The cells were centrifuged at 700 rcf for 5 min and the supernatant was discarded. The neural precursor cell culture medium was added, and the cells were inoculated and cultured in a 24-well cell culture plate. […]
The cultured cells were fixed with 4% PFA for 15 min, and washed three times with 0.01 M PBS, and then immunofluorescence staining was performed with Tuj1, GFAP, MBP, and caspase3 antibodies. The plate was blocked with a DAPI-containing blocking agent (Vector Labs, H-1400), observed and photographed under a Zeiss fluorescence microscope. Tuj1-positive neurons GFAP-positive astrocytes, MBP-positive oligodendrocytes and DAPI-positive cells were counted using ImageJ and adobe photoshop, respectively. The rate of positive cells to all DAPI-positive cells was calculated. • (2) The cells were fixed with 4% PFA after 5 days of differentiation in the differentiation medium, and immunofluorescently stained with the neuron-specific antibody Tuj1. After staining, images were collected under a fluorescence microscope, and the rates of neurons to all DAPI-positive cells in each group were statistically calculated.

In the case of `Oc1ccc(-c2cc(=S)ss2)cc1` [ADT-OH, 5-(p-hydroxyphenyl)-1,2-dithione-3-thione], the “apoptosis, reduction compared with the DMSO control group” value with neural precursor cells [1] (3 days) is 44.8%. The “apoptotic cells (caspase3 positive cells to all DAPI-positive cells) compared with the DMSO control group” value in the assay on neural precursor cells [1] (3 days in neural precursor cell culture medium) was “fewer cells are apoptotic”. In the assay with neural precursor cells [2], the “differentiation into oligodendrocytes (MBP positive cells to all DAPI-positive cells) compared with the DMSO control group” value was “more cells are differentiated into oligodendrocytes” and the “rate of differentiation into oligodendrocytes, increase compared with the DMSO control group” value was found to be 87.5%. Moreover, in the assay on neural precursor cells [3], the “differentiation into astrocytes (GFAP positive cells to DAPI-positive cells) compared with the DMSO control group” value is listed as “fewer cells in the ADT-OH group are differentiated into astrocytes” and the “rate of differentiation into astrocytes, reduction compared with the DMSO control group” value came out at 69.2%. For the same compound, in the assay with neural precursor cells [4], the “axons of neurons (axonal length) compared with the DMSO control group” value is “longer axons”; the “differentiation into neurons (Tuj1-positive cells to all DAPI-positive cells) compared with the DMSO control group” value is listed as “more cells are differentiated into neurons”; the “rate of differentiation into neurons, increase compared with the DMSO control group” value was 57.69%.
